Consider two compounds from US10967078B2, “Radiolabelled mGluR2 PET ligands” (Janssen Pharmaceutica NV, priority 2014, dated 2021).

In the experiment the target is T1, mGluR2 (Mus musculus, UniProt Q14BI2).
T1 construct: horizontal sections of mGluR2 KO and WT mouse brain and of normal female Wistar rat brain; from tissue; host or cells: mouse brain sections (WT and mGluR2 KO), 20 µm
The experiment can be described thus: In vitro autoradiography binding on mGluR2 KO and WT mouse brain sections. The note with it: for Cortex WT (TB)/cortex WT (block Co. No. 1) / spec binding, cortex WT: WT mouse cortex; for Cortex WT (TB)/cortex WT (block Co. No. 1) / spec binding, cortex WT / Striatum WT (TB)/striatum WT (block Co. No. 1) / spec binding, striatum WT: block with 10 μM Co. No. 1; for Striatum WT (TB)/striatum WT (block Co. No. 1) / spec binding, striatum WT: WT mouse striatum; for difference in tracer binding to WT and mGluR2 KO mouse brain sections: in words; for Cortex WT (TB)/Cortex KO (TB) / Striatum WT (TB)/Striatum KO (TB): total binding ratio, WT versus mGluR2 KO mouse brain sections. As to the method: In vitro autoradiography studies were performed on horizontal sections of mGluR2 KO and WT mouse brain and of normal female Wistar rat brain (20 μm). The sections were preincubated in 50 mM Tris-HCl (MgCl2 2 mM, CaCl2 2 mM; pH 7.0) for 10 min (two times) at room temperature and dried. Next, the brain sections were incubated with tracer [^11C]-2, [^11C]-5, [^11C]-4, [^11C]-1 or [^18F]-3 diluted in the same Tris-HCl buffer as used for the preincubation additionally containing 0.1% BSA or with this tracer solution in the presence of 10 μM Co. No. 2 or Co. No. 1. The mouse brain sections were incubated with 17 kBq of carbon-11 labeled tracer and 1.7 kBq of fluorine-18 labeled tracer. For the rat brain sections this was 44 kBq of carbon-11 labeled tracer and 0.44 kBq of fluorine-18 labeled tracer. After 30 min of incubation, the brain sections were washed three times for 5 min in ice-cold Tris-HCl 50 mM ((MgCl2 2 mM, CaCl2 2 mM; pH 7.0+0.1% BSA buffer). After a quick dip in purified ice-cold water, the slides were dried. Autoradiograms were obtained by exposing the slides overnight to a high-performance phosphor storage screen (super-resolution screen; Perkin Elmer, Waltham, USA). The screens were read using a Cyclone Plus system (Perkin Elmer) and analysed using Optiquant software (Perkin Elmer). The radioactivity concentration in the autoradiograms was expressed in digital light units (DLU)/mm^2.
To obtain additional information on the specificity of the tracer binding to mGluR2, in vitro autoradiography binding studies were performed on mGluR2 KO and WT mouse brain sections and on normal rat brain sections in presence or absence of a high concentration of mGluR2 NAM compounds (Co. No. 1 or Co. No. 2).

T1 sequence (Q14BI2 19-872): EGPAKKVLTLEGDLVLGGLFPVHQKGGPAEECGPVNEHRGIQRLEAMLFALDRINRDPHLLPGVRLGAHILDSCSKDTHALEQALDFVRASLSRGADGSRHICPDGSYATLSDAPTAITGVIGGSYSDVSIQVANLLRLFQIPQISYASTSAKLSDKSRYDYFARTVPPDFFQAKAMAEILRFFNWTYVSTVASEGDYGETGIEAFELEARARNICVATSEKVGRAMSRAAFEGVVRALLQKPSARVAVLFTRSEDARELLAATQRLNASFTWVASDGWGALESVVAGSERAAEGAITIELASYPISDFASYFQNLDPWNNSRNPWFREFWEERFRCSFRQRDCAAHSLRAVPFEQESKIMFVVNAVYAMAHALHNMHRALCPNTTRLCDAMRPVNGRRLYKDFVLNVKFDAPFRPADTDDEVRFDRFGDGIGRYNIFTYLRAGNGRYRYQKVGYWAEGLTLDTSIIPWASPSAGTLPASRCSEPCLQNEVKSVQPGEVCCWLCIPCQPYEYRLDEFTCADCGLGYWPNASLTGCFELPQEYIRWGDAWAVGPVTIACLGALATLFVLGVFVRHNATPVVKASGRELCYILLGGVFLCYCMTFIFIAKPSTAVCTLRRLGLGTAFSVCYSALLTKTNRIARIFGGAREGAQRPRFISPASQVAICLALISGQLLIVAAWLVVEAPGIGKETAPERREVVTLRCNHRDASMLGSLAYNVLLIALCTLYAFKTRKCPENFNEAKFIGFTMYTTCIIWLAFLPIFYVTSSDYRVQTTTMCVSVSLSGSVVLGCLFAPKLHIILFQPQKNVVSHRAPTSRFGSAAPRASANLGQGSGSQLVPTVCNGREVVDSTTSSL

Turning to `C[C@H]1CN(c2ccc(S(F)(F)(F)(F)F)cc2)C(=O)c2c(-c3ccnc(N[11CH3])c3)cnn21` [[^11C]-4], the “Cortex WT (TB)/cortex WT (block Co. No. 1)” value is recorded as around 3.8; the “spec binding, cortex WT” value is “(~74% spec”; the “Striatum WT (TB)/striatum WT (block Co. No. 1)” value is on record as around 2.6; the “spec binding, striatum WT” value is reported as “(~62% spec”. Besides, the “difference in tracer binding to WT and mGluR2 KO mouse brain sections” value is “less pronounced”; the “Cortex WT (TB)/Cortex KO (TB)” value is around 2.6; the “Striatum WT (TB)/Striatum KO (TB)” value was around 2.2.

As to `COc1nc(N2C[C@H](C)n3ncc(-c4ccnc(N[11CH3])c4)c3C2=O)ccc1C(F)(F)F` [[^11C]-5], the “Cortex WT (TB)/cortex WT (block Co. No. 1)” value was around 2.4; the “spec binding, cortex WT” value is listed as “(~58% spec”; the “Striatum WT (TB)/striatum WT (block Co. No. 1)” value is around 1.9; the “spec binding, striatum WT” value was “(~47% spec”. In addition, the “difference in tracer binding to WT and mGluR2 KO mouse brain sections” value is “less pronounced”; the “Cortex WT (TB)/Cortex KO (TB)” value is around 2.6; the “Striatum WT (TB)/Striatum KO (TB)” value was around 1.9.
